Columns and labels:
[1] = test system: RET tyrosine kinase mutants (V804L/V804/M918T); test: KINOMEscan competition binding assay; design: species or system human; conditions: 10 µM
Description: (§1) To examine specificity of DJ4 to different human kinases, we performed a KINOMEscan profiling assay (DiscoverX, Fremont, CA, USA). The KINOMEscan assay consists of a panel of more than 480 kinases of different classes (TK/TKL/STE/CK1/AGC/CAMK/CMGC/others), including clinically relevant mutants, atypical kinases, lipid, and pathogen kinases. […] However, we also recognized the limitations of DJ4 that preclude its clinical development and the need for further optimization of the DJ4 chemotype.
(§2) Figure 5 The kinase selectivity profile for DJ4 assessed using KINOMEscan high-throughput assay. […] The red spots (ROCK/MRCK/CDK/FLT3/KIT) indicate kinases with high specificity to DJ4. (C,D) The % inhibition profile of DJ4 with wild-type (WT) and its clinically relevant kinase mutants of RET (rearranged during transfection) tyrosine kinase (C) and EGFR (epidermal growth factor receptor) protein kinase (D).
(§3) The KINOMEscan®, in vitro competition binding assay, was performed by Lead Hunter Discovery Services (DiscoverX Corporation, Fremont, CA, USA) to determine the kinase specificity of DJ4, a novel kinase inhibitor [19, 44]. […] The %Ctrl is calculated as follows: [(DJ4 signal-positive control signal)/(negative control DMSO signal-positive control signal)] x 00. […]

[2] = test system: EGFR mutants (G718C, G719S, L858R, etc.); test: KINOMEscan competition binding assay; design: species or system human; conditions: 10 µM
Description: as §1, §2, §3

[3] = molecular target: T1, MRCK1 (Homo sapiens, UniProt Q5VT25); test: KINOMEscan competition binding assay; conditions: MRCK1, 10 µM
T1 construct: purchased DiscoverX Corporation (Lead Hunter Discovery Services, KINOMEscan)
Description: as §1
(§4) The KINOMEscan®, in vitro competition binding assay, was performed by Lead Hunter Discovery Services (DiscoverX Corporation, Fremont, CA, USA) to determine the kinase specificity of DJ4, a novel kinase inhibitor [19, 44]. The KINOMEscan® panel consists of more than 480 kinases, including clinically relevant mutants, lipid, atypical, and pathogen kinases, plus a growing panel of activation-state specific assays. The primary screen was performed using a single concentration of 10 µM, and the results for DJ4 binding interactions are reported as percent of control (%Ctrl). The %Ctrl is calculated as follows: [(DJ4 signal-positive control signal)/(negative control DMSO signal-positive control signal)] x […]. The human kinome tree annotation for DJ4 is plotted with Reaction Biology’s Kinase Mapper and KinMap web interface tool http://kinhub.org/kinmap (accessed on 09 January 2023).

[4] = molecular target: T2, MRCK2 (Homo sapiens, UniProt Q9Y5S2); test: KINOMEscan competition binding assay; conditions: MRCK2, 10 µM
T2 construct: purchased DiscoverX Corporation (Lead Hunter Discovery Services, KINOMEscan)
Description: as §1, §4

[5] = molecular target: T3, KIT (Homo sapiens, UniProt P10721); test: KINOMEscan competition binding assay
T3 construct: purchased DiscoverX Corporation (Lead Hunter Discovery Services, KINOMEscan)
Description: as §1, §4

[6] = molecular target: T4, CDK14 (Homo sapiens, UniProt O94921); test: KINOMEscan competition binding assay; conditions: CDK14, 10 µM
T4 construct: purchased DiscoverX Corporation (Lead Hunter Discovery Services, KINOMEscan)
Description: as §1, §4

[7] = molecular target: T5, CDK8 (Homo sapiens, UniProt P49336); test: KINOMEscan competition binding assay; conditions: CDK8, 10 µM
T5 construct: purchased DiscoverX Corporation (Lead Hunter Discovery Services, KINOMEscan)
Description: as §1, §4

[8] = molecular target: T6, CDK7 (Homo sapiens, UniProt P50613); test: KINOMEscan competition binding assay; conditions: CDK7, 10 µM
T6 construct: purchased DiscoverX Corporation (Lead Hunter Discovery Services, KINOMEscan)
Description: as §1, §4

[9] = molecular target: T7, FLT3 (Homo sapiens, UniProt P36888); test: KINOMEscan competition binding assay; conditions: FLT3, 10 µM
T7 construct: purchased DiscoverX Corporation (Lead Hunter Discovery Services, KINOMEscan)
Description: as §1, §4

[10] = molecular target: T8, CDK9 (Homo sapiens, UniProt P50750); test: KINOMEscan competition binding assay; conditions: CDK9, 10 µM
T8 construct: purchased DiscoverX Corporation (Lead Hunter Discovery Services, KINOMEscan)
Description: as §1, §4

[11] = test system: MDA-MB-231 breast cancer cells; test: Western blot of proliferation and apoptosis proteins; assay type: cell-based, human; conditions: 24 h
Method: (§5) To extend these observations to MDA-MB-231 breast cancer cells, cells were treated with DJ4 at 2.5, 5.0, and 10 µM for 24 h. ROCK1/2 catalyzes the inactivating phosphorylation of the myosin phosphatase subunit MYPT1 at Thr696 and Thr853 [16]. To confirm the targeting of ROCK1/2 by DJ4 in MDA-MB-231 cells, we probed for phosphorylation of MYPT1.
In contrast, expression of proliferating cell nuclear antigen (PCNA) protein was decreased at all the concentrations (Figure 4C). PCNA is highly expressed during active DNA synthesis (S phase).
(§6) For protein expression studies, MDA-MB-231 cells were treated with indicated concentrations of DJ4 for 24 h. Additionally, A549 cells were treated for 24 h and 48 h. Cell lysate preparation, protein estimation, and Western blot analysis was performed as per the procedure reported earlier. The blots were probed with cleaved caspase 7 (#9492, Cell Signaling, Danvers, MA, USA), GAPDH (#97166, Cell Signaling, Danvers, MA, USA), β-Actin (#3700, Cell Signaling, Danvers, MA, USA), pErk (#5726, Cell Signaling, Danvers, MA, USA), p21 ^WAF1/CIP1 (#60480, Cell Signaling, Danvers, MA, USA), cyclinD3 (#2936, Cell Signaling, Danvers, MA, USA), CDK4 (#23972, Cell Signaling, Danvers, MA, USA), cleaved PARP (#32563, Cell Signaling, Danvers, MA, USA), pan Erk (#23887, Cell Signaling, Danvers, MA, USA), pMYPT1 (Thr853, # SAB4503944, Millipore, Inc., Burlington, MA, USA) and PCNA (#sc-56, Santa Cruz Biotechnology, Inc., Dallas, TX, USA) antibodies.

[12] = test system: pMYPT1 (Thr696 and Thr853) in MDA-MB-231 cells; test: Western blot of MYPT1 phosphorylation (ROCK1/2 targeting); assay type: cell-based, human; conditions: MDA-MB-231, 2.5, 5.0 and 10 µM, 24 h
Method: as §5, §6

[13] = molecular target: ROCK2 (Homo sapiens, UniProt O75116); test: KINOMEscan competition binding assay; design: purchased DiscoverX Corporation (Lead Hunter Discovery Services, KINOMEscan); conditions: ROCK2, 10 µM
Description: as §1, §4

[14] = molecular target: ROCK1 (Homo sapiens, UniProt Q13464); test: KINOMEscan competition binding assay; design: purchased DiscoverX Corporation (Lead Hunter Discovery Services, KINOMEscan); conditions: ROCK1, 10 µM
Description: as §1, §4

[15] = MDA-MB-231, all concentrations (2.5, 5.0, 10 µM)

T8 sequence (P50750 whole entry): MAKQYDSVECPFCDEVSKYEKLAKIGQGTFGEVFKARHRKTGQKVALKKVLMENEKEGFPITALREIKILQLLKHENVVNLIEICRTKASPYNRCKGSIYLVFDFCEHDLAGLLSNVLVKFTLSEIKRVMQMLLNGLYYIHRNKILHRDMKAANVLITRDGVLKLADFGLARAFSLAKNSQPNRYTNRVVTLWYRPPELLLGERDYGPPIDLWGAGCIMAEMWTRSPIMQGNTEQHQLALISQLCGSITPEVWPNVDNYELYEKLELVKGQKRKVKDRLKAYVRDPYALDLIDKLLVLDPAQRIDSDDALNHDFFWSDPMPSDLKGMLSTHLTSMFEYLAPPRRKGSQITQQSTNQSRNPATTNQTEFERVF
T2 sequence (Q9Y5S2 whole entry): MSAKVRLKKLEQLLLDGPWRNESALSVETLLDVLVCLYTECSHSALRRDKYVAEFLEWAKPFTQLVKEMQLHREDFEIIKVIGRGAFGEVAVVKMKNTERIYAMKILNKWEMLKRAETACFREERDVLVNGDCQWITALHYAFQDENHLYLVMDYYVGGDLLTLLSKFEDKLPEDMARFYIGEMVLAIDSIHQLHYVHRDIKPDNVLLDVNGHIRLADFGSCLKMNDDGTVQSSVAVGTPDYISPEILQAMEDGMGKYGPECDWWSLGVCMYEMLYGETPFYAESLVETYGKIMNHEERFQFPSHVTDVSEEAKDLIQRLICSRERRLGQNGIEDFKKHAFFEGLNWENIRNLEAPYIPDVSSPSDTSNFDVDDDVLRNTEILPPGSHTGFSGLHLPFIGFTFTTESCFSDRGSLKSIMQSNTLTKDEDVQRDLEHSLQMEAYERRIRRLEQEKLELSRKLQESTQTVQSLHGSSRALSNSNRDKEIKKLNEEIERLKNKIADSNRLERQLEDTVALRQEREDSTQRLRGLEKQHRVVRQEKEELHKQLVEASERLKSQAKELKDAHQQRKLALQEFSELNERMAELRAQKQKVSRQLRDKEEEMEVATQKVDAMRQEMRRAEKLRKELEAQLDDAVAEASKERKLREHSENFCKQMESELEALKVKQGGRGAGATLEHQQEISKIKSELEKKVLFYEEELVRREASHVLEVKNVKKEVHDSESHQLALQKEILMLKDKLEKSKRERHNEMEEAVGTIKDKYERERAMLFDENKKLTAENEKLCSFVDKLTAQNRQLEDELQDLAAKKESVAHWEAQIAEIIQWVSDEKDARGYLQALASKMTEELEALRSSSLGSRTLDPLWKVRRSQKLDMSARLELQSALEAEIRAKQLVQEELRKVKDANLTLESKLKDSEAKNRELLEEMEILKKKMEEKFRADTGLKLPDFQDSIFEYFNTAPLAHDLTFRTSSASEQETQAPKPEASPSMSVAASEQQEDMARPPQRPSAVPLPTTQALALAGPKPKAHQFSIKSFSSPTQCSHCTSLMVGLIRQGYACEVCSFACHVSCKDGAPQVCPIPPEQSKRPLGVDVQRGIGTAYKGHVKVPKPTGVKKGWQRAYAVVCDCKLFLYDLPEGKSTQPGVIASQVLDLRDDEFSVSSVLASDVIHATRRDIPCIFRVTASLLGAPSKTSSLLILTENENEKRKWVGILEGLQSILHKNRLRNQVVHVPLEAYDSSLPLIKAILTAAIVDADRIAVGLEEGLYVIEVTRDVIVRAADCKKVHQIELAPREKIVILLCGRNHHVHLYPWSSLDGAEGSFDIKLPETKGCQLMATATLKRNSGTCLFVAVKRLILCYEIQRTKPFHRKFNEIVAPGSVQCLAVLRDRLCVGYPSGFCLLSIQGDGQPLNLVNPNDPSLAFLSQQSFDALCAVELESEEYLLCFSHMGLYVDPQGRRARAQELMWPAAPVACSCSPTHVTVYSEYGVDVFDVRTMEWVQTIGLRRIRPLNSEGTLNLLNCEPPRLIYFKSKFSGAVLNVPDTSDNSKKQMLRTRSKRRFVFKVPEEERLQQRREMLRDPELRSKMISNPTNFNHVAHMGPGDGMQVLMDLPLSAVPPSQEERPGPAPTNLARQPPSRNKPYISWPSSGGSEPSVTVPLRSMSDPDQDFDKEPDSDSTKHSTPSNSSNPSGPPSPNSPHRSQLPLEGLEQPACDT
T6 sequence (P50613 whole entry): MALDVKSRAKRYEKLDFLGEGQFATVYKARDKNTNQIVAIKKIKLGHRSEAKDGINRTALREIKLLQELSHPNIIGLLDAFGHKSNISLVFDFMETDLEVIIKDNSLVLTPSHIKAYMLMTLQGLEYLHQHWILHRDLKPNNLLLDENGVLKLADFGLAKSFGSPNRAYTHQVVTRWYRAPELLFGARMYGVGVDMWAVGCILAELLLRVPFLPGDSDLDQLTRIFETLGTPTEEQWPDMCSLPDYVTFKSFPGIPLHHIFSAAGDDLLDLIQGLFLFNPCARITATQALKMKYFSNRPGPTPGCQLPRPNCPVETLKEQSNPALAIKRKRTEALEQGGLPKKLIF
T4 sequence (O94921 whole entry): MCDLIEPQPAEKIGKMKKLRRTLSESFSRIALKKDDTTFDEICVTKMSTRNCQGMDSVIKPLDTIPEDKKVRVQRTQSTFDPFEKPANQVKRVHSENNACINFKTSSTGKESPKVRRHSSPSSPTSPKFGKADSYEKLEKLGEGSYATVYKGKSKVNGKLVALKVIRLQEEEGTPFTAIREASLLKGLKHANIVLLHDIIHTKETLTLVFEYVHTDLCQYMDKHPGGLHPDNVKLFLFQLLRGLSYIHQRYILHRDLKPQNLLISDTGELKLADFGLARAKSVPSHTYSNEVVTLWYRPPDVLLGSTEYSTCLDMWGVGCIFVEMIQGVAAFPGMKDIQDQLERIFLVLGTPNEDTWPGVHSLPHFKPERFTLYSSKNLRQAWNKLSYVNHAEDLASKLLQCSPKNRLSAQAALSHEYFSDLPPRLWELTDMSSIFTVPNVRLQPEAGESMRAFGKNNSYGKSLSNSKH
T7 sequence (P36888 27-993): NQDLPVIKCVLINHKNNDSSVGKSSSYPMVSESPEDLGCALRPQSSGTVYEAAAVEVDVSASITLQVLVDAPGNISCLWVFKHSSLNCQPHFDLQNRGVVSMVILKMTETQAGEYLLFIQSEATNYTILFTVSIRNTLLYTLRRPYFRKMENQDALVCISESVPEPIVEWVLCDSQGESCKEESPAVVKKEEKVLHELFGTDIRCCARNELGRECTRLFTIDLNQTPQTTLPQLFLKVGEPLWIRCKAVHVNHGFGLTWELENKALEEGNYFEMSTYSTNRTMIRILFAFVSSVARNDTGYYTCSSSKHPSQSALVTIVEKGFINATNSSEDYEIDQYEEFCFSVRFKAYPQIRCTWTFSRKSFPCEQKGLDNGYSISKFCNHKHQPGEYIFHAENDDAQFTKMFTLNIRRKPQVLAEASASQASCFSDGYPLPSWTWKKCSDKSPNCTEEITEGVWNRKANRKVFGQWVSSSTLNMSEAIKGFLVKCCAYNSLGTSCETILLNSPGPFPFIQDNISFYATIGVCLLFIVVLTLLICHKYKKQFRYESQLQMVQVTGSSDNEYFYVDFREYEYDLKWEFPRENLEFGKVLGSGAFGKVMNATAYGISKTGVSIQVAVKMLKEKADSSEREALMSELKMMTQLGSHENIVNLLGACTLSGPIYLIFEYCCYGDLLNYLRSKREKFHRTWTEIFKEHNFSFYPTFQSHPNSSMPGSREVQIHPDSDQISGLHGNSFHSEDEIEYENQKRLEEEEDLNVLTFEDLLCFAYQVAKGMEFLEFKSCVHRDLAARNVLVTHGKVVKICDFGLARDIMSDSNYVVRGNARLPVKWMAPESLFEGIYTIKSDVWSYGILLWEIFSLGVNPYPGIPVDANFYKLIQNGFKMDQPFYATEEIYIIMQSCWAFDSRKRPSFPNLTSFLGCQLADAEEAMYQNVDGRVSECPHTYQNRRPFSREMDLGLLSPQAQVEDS
T3 sequence (P10721 26-976): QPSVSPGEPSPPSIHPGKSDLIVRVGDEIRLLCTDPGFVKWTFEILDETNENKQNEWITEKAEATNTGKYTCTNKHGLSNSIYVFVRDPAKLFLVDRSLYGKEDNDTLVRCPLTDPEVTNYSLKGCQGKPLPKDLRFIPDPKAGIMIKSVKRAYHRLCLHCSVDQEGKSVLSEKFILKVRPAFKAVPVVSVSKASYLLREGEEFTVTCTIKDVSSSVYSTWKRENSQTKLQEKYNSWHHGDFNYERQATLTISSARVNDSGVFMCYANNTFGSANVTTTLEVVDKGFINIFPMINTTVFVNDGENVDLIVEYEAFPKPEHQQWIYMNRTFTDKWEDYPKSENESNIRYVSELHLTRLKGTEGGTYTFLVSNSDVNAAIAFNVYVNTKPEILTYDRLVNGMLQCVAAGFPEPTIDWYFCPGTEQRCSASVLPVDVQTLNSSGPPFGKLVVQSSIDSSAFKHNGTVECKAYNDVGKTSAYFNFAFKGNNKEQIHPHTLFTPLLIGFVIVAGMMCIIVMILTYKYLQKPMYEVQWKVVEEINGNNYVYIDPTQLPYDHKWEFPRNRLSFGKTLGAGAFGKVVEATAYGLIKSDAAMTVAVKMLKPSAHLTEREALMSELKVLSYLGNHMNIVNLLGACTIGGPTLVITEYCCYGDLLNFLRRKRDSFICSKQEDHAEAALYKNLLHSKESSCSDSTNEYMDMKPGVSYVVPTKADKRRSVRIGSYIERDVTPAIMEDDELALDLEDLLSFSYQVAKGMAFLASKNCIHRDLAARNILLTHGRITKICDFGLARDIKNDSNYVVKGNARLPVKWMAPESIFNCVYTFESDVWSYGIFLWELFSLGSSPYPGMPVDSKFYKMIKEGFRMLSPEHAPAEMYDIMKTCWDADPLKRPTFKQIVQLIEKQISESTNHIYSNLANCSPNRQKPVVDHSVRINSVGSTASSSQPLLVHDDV

**Q.** Which results are given for `O=C1N/C(=N\CCc2ccccc2)S/C1=C/c1c[nH]c2ncccc12` [DJ4]?
**A.** binding of RET mutants relative to wild-type [1]: stronger binding; inhibition of EGFR mutants relative to wild-type form [2]: differential inhibition; inhibition at 10 µM [3]: > 98%; inhibition at 10 µM [4]: > 98%; inhibition at 10 µM [5]: > 98%; inhibition at 10 µM [6]: > 98%; inhibition at 10 µM [7]: > 98%; inhibition at 10 µM [8]: > 98%; inhibition at 10 µM [9]: > 98%; inhibition at 10 µM [10]: > 98%; expression of pErk ([11]; MDA-MB-231, 2.5, 5.0 and 10 µM): significantly increased; cleaved PARP [11, 15]: corresponding increases; expression of PCNA [11, 15]: decreased; expression of cleaved caspase 7 [11, 15]: significantly increased; pMYPT1 (Thr696 and Thr853) [12]: concentration-dependent decrease; inhibition at 10 µM [13]: > 98%; inhibition at 10 µM [14]: > 98%
